Source: patent publication US12065436B2, “Cardiac sarcomere inhibitors” (Cytokinetics, Inc., priority 2018, dated 2024)

Molecular target: bovine cardiac myofibrils (full-length cardiac myosin ATPase in the native sarcomere) (Bos taurus (Bovine), UniProt Q9BE39)
Assay: Skinned bovine cardiac myofibril ATPase assay (PK/LDH-coupled)
Assay type: biochemical
Conditions: Ca2+ activating to 75% of maximal rate; for CDMF75 IC15: concentration giving 15% inhibition; for IC50: read-out: CDMF75 IC50
How it was run: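 Inhibition of steady-state ATPase read at 340 nm through a PK/LDH-coupled NADH system (0.5 mM NADH, 1.5 mM PEP). Detergent-skinned bovine cardiac myofibrils, 1 mg/mL, were tested at pH 6.8 in PIPES/MgCl2 with 50 μM ATP and calcium adjusted to give pCa50 or pCa75 activation.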

Chain of bovine cardiac myofibrils (full-length cardiac myosin ATPase in the native sarcomere) (Q9BE39 whole entry): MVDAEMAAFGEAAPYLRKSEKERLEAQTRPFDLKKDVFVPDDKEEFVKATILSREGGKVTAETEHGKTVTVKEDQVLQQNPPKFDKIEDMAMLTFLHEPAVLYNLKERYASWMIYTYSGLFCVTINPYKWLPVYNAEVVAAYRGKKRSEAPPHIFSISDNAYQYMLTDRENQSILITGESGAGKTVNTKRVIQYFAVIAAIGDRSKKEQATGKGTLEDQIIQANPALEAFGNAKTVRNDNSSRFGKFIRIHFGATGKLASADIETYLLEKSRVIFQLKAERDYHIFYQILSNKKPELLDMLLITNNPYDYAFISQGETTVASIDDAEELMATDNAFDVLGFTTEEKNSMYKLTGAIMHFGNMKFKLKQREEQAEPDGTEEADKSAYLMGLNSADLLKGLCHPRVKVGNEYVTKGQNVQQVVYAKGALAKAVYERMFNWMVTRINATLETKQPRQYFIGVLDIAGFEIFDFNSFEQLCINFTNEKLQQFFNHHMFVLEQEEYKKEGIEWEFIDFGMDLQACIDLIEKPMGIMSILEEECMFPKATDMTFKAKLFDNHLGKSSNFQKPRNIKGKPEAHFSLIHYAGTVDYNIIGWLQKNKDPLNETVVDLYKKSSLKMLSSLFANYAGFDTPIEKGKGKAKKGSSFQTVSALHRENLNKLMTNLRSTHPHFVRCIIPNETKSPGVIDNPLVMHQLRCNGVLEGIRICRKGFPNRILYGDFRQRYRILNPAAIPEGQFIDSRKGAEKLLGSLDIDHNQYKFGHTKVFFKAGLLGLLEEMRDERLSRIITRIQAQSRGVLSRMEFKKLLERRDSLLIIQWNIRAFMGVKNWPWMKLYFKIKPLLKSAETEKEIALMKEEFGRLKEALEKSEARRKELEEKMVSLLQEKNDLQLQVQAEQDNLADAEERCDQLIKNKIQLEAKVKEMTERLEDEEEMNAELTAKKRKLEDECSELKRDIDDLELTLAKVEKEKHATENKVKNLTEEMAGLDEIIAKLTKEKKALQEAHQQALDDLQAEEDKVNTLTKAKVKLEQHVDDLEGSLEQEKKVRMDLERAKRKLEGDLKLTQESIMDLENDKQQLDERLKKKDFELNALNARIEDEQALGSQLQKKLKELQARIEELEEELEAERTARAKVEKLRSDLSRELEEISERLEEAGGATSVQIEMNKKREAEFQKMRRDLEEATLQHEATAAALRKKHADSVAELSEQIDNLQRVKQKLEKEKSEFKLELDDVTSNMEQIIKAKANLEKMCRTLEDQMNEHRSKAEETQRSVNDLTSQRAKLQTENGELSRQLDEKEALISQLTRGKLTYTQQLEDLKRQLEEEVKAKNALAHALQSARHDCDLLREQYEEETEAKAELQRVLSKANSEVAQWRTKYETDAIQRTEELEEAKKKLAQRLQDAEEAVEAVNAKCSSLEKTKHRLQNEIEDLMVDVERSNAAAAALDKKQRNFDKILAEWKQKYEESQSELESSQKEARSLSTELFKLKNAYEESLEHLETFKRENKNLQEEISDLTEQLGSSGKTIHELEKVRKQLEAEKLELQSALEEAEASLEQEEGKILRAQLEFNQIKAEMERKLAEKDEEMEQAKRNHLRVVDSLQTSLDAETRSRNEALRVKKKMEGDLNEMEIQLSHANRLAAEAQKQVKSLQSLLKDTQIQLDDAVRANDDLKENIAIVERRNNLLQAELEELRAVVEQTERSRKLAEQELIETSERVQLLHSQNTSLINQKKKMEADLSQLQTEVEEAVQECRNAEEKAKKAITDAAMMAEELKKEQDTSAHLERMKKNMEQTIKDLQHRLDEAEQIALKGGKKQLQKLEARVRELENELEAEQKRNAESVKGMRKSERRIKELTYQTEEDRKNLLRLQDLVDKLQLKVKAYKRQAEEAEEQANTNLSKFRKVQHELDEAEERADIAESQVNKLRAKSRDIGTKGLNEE
Chain of bovine cardiac myofibrils (full-length cardiac myosin ATPase in the native sarcomere) (P85100 whole entry partner): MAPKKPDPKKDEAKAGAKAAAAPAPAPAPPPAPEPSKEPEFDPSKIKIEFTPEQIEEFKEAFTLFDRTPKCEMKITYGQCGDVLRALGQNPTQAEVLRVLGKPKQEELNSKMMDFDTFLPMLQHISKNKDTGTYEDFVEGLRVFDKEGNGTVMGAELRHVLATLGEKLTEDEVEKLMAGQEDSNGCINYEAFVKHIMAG
Chain of bovine cardiac myofibrils (full-length cardiac myosin ATPase in the native sarcomere) (Q3SZE5 whole entry partner): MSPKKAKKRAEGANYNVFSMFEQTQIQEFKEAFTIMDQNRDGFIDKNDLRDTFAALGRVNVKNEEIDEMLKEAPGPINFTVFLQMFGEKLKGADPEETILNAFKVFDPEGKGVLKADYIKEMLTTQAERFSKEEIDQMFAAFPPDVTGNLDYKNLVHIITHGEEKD

Row | SMILES | CDMF75 IC15 [µM] | IC50 [µM]
1 | CCc1nc(-c2ccc3c(c2)CC[C@H]3NC(=O)c2cnn(C(C)CO)c2)no1 (stereo partly drawn) [Compound 533, N-((R)-5-(5-ethyl-1,2,4-oxadiazol-3-yl)-2,3-dihydro-1H-inden-1-yl)-1-(1-hydroxypropan-2-yl)-1H-pyrazole-4-carboxamide] | 1.5 | 8.7
2 | CCc1nc(-c2ccc3c(c2)OCCC3NC(=O)c2cnn(C)c2)no1 (stereo not shown) [Compound 534, N-(7-(5-ethyl-1,2,4-oxadiazol-3-yl)chroman-4-yl)-1-methyl-1H-pyrazole-4-carboxamide] | 2.2 | 13.5
3 | CCc1nc(-c2ccc3c(c2)OCC[C@H]3NC(=O)c2cnn(C)c2)no1 [Compound 535, (R)-N-(7-(5-ethyl-1,2,4-oxadiazol-3-yl)chroman-4-yl)-1-methyl-1H-pyrazole-4-carboxamide] | 1.0 | 5.8
4 | CCc1nc(-c2ccc3c(c2)OCCC3NC(=O)c2ccnn2C)no1 (stereo not shown) [Compound 536, N-(7-(5-ethyl-1,2,4-oxadiazol-3-yl)chroman-4-yl)-1-methyl-1H-pyrazole-5-carboxamide] | 1.1 | 3.5
5 | CCc1nc(-c2ccc3c(c2)OCC[C@H]3NC(=O)c2ccnn2C)no1 [Compound 537, (R)-N-(7-(5-ethyl-1,2,4-oxadiazol-3-yl)chroman-4-yl)-1-methyl-1H-pyrazole-5-carboxamide] | 0.4 | 1.8
6 | CCc1nc(-c2ccc3c(c2)CC[C@H]3NC(=O)c2cnn(C[C@@H](O)CO)c2)no1 [Compound 539, N-[(1R)-5-(5-ethyl(1,2,4-oxadiazol-3-yl))indanyl][1-((2R)-2,3-dihydroxypropyl)pyrazol-4-yl]carboxamide] | 1.3 | 6
7 | CCc1nc(-c2ccc3c(c2)CC[C@H]3NC(=O)c2cnn(C[C@H](O)CO)c2)no1 [Compound 540, N-[(1R)-5-(5-ethyl(1,2,4-oxadiazol-3-yl))indanyl][1-((2S)-2,3-dihydroxypropyl)pyrazol-4-yl]carboxamide] | 0.7 | 2.9
8 | CCc1nc(-c2ccc3c(c2)CC[C@H]3NC(=O)c2cnn(C[C@H](C)O)c2)no1 [Compound 541, N-[(1R)-5-(5-ethyl(1,2,4-oxadiazol-3-yl))indanyl][1-((2S)-2-hydroxypropyl)pyrazol-4-yl]carboxamide] | 1.2 | 5.2
9 | CC(=O)O[C@@H](C)c1nc(-c2ccc3c(c2)CC[C@H]3NC(=O)c2cnn(C)c2)no1 [Compound 543, 1-(3-{(1R)-1-[(1-methylpyrazol-4-yl)carbonylamino]indan-5-yl}(1,2,4-oxadiazol-5-yl))(1S)ethyl acetate] | 4.6 | 17.3
10 | COC(=O)Cc1nc(-c2ccc3c(c2)CC[C@H]3NC(=O)c2cnn(C)c2)no1 [Compound 544, methyl 2-(3-{(1R)-1-[(1-methylpyrazol-4-yl)carbonylamino]indan-5-yl}-1,2,4-oxadiazol-5-yl)acetate] | 34.9 | 39.2
11 | CC(=O)c1nc(-c2ccc3c(c2)CC[C@H]3NC(=O)c2cnn(C)c2)no1 [Compound 545, N-[(1R)-5-(5-acetyl(1,2,4-oxadiazol-3-yl))indanyl](1-methylpyrazol-4-yl)carboxamide] | 3.2 | 13.1
12 | COCCc1nc(-c2ccc3c(c2)CC[C@H]3NC(=O)c2cnn(C)c2)no1 [Compound 546, N-{(1R)-5-[5-(2-methoxyethyl)(1,2,4-oxadiazol-3-yl)]indanyl}(1-methylpyrazol-4-yl)carboxamide] | 15.5 | 39.2
13 | C=Cc1nc(-c2ccc3c(c2)CC[C@H]3NC(=O)c2cnn(C)c2)no1 [Compound 547, N-[(1R)-5-(5-vinyl(1,2,4-oxadiazol-3-yl))indanyl](1-methylpyrazol-4-yl)carboxamide] | 0.4 | 1.5
14 | CC(=O)OCCc1nc(-c2ccc3c(c2)CC[C@H]3NC(=O)c2cnn(C)c2)no1 [Compound 548, 2-(3-{(1R)-1-[(1-methylpyrazol-4-yl)carbonylamino]indan-5-yl}-1,2,4-oxadiazol-5-yl)ethyl acetate] | 11.8 | 39.2
15 | C[C@@H](O)c1nc(-c2ccc3c(c2)CC[C@H]3NC(=O)c2cnn(C)c2)no1 [Compound 550, N-{(1R)-5-[5-((1R)-1-hydroxyethyl)(1,2,4-oxadiazol-3-yl)]indanyl}(1-methylpyrazol-4-yl)carboxamide] | 13.1 | 39.2
16 | COC(C)c1nc(-c2ccc3c(c2)CC[C@H]3NC(=O)c2cnn(C)c2)no1 (stereo partly drawn) [Compound 551, N-((1R)-5-(5-(1-methoxyethyl)-1,2,4-oxadiazol-3-yl)-2,3-dihydro-1H-inden-1-yl)-1-methyl-1H-pyrazole-4-carboxamide] | 3.6 | 14.6

Row | SMILES | CDMF75 IC15 [µM] | IC50 [µM]
17 | Cn1cc(C(=O)N[C@@H]2CCc3cc(-c4noc(CCO)n4)ccc32)cn1 [Compound 552, N-{(1R)-5-[5-(2-hydroxyethyl)(1,2,4-oxadiazol-3-yl)]indanyl}(1-methylpyrazol-4-yl)carboxamide] | 13.7 | 39.2
18 | CCc1nc(-c2ccc3c(c2)CC[C@H]3NC(=O)c2cnn(CC(O)CO)c2)no1 (stereo partly drawn) [Compound 553, N-{(1R)-5-(5-ethyl(1,2,4-oxadiazol-3-yl))indanyl][1-(2,3-dihydroxypropyl)pyrazol-4-yl]carboxamide] | 1.2 | 5.1
19 | CCc1nc(-c2cc(F)c3c(c2)CC[C@H]3NC(=O)c2cnn(C)c2)no1 [Compound 554, (R)-N-(5-(5-ethyl-1,2,4-oxadiazol-3-yl)-7-fluoro-2,3-dihydro-1H-inden-1-yl)-1-methyl-1H-pyrazole-4-carboxamide] | 0.4 | 1.5
20 | CCOC(=O)c1cc(C(=O)N[C@@H]2CCc3cc(-c4noc(CC)n4)ccc32)ccn1 [Compound 555, Ethyl (R)-4-((5-(5-ethyl-1,2,4-oxadiazol-3-yl)-2,3-dihydro-1H-inden-1-yl)carbamoyl)picolinate] | 1.0 | 3.5
21 | CCc1nc(-c2ccc3c(c2)CC[C@H]3NC(=O)c2cc(C)ncc2F)no1 [Compound 556, (R)-N-(5-(5-ethyl-1,2,4-oxadiazol-3-yl)-2,3-dihydro-1H-inden-1-yl)-5-fluoro-2-methylisonicotinamide] | 1.4 | 7.6
22 | CCc1nc(-c2ccc3c(c2)CC[C@H]3NC(=O)c2ccnc(OC)c2)no1 [Compound 557, (R)-N-(5-(5-ethyl-1,2,4-oxadiazol-3-yl)-2,3-dihydro-1H-inden-1-yl)-2-methoxyisonicotinamide] | 0.4 | 1.4
23 | CCc1nc(-c2ccc3c(c2)CC[C@H]3NC(=O)c2ccn(C)c(=O)c2)no1 [Compound 558, (R)-N-(5-(5-ethyl-1,2,4-oxadiazol-3-yl)-2,3-dihydro-1H-inden-1-yl)-1-methyl-2-oxo-1,2-dihydropyridine-4-carboxamide] | 2.0 | 8.3
24 | CCc1nc(-c2ccc3c(c2)CC[C@H]3NC(=O)c2ccn(CCO)c(=O)c2)no1 [Compound 559, (R)-N-(5-(5-ethyl-1,2,4-oxadiazol-3-yl)-2,3-dihydro-1H-inden-1-yl)-1-(2-hydroxyethyl)-2-oxo-1,2-dihydropyridine-4-carboxamide] | 1.4 | 5.7
25 | CCc1nc(-c2ccc3c(c2)CC[C@H]3NC(=O)c2ccn(C[C@@H](C)O)c(=O)c2)no1 [Compound 560, N-((R)-5-(5-ethyl-1,2,4-oxadiazol-3-yl)-2,3-dihydro-1H-inden-1-yl)-1-((R)-2-hydroxypropyl)-2-oxo-1,2-dihydropyridine-4-carboxamide] | 1.3 | 4.7
26 | CCc1nc(-c2ccc3c(c2)CC[C@H]3NC(=O)c2coc(C)n2)no1 [Compound 561, (R)-N-(5-(5-ethyl-1,2,4-oxadiazol-3-yl)-2,3-dihydro-1H-inden-1-yl)-2-methyloxazole-4-carboxamide] | 1.4 | 7
27 | CCc1nc(-c2ccc3c(c2F)CC[C@H]3NC(=O)c2cnn(C)c2)no1 [Compound 562, (R)-N-(5-(5-ethyl-1,2,4-oxadiazol-3-yl)-4-fluoro-2,3-dihydro-1H-inden-1-yl)-1-methyl-1H-pyrazole-4-carboxamide] | 0.3 | 1
28 | CCc1nc(-c2ccc3c(c2)CC[C@H]3NC(=O)c2cn(C)nc2C)no1 [Compound 563, (R)-N-(5-(5-ethyl-1,2,4-oxadiazol-3-yl)-2,3-dihydro-1H-inden-1-yl)-1,3-dimethyl-1H-pyrazole-4-carboxamide] | 0.4 | 1.2
29 | CCc1nc(-c2ccc3c(c2)CC[C@H]3NC(=O)c2cnoc2C)no1 [Compound 564, (R)-N-(5-(5-ethyl-1,2,4-oxadiazol-3-yl)-2,3-dihydro-1H-inden-1-yl)-5-methylisoxazole-4-carboxamide] | 0.2 | 0.6
30 | CCc1nc(-c2ccc3c(c2)CC[C@H]3NC(=O)c2conc2C)no1 [Compound 566, (R)-N-(5-(5-ethyl-1,2,4-oxadiazol-3-yl)-2,3-dihydro-1H-inden-1-yl)-3-methylisoxazole-4-carboxamide] | 0.2 | 0.8
31 | CCc1nc(-c2ccc3c(c2)CC[C@H]3NC(=O)c2cc(C)nn2C)no1 [Compound 567, (R)-N-(5-(5-ethyl-1,2,4-oxadiazol-3-yl)-2,3-dihydro-1H-inden-1-yl)-1,3-dimethyl-1H-pyrazole-5-carboxamide] | 0.3 | 1
32 | CCc1nc(-c2ccc3c(c2)CC[C@H]3NC(=O)c2cnc(C)n2C)no1 [Compound 568, (R)-N-(5-(5-ethyl-1,2,4-oxadiazol-3-yl)-2,3-dihydro-1H-inden-1-yl)-1,2-dimethyl-1H-imidazole-5-carboxamide] | 0.4 | 1.6
